# Source: patent US20080096970A1, “Stable Nateglinide Form B Compositions” (priority 2004, published 2008)
# Assay: Polymorphic stability of nateglinide Form B after processing: absence of Form H by X-ray powder diffraction
# Format: physicochemical
# Conditions: Cu Kα-1, after de-lumping and air jet milling, Form H detectable at about 2 percent by weight or more
# Method: Stability of the nateglinide Form B after processing is determined by an absence of the polymorphic Form H of the compound. This is determined by generating X-ray powder diffraction patterns of samples and checking for the characteristic peaks that correspond to Form H. For the present application, the X-ray diffraction patterns of the figures were obtained with Cu Kα-1 radiation. Nateglinide Form H can be detected at concentrations at least about 2 percent by weight, and quantified at concentrations at least about 5 percent by weight.
smiles,measurement,value
"CC(C)[C@H]1CC[C@H](C(=O)NC(Cc2ccccc2)C(=O)O)CC1 (single isomer, unassigned; (-)) [nateglinide Form B, (−)-N-[(trans-4-isopropylcyclohexane)-carbonyl]-D-phenylalanine]",presence of nateglinide Form H after particle size reduction (stability of Form B),not detected
